Columns and labels:
Assay type in all cases: cell-based, dog
[1] = system: nitric-oxide guanosine 3′,5′cyclic monophosphate pathway; test: Effect of NOS, guanylyl cyclase and PKG inhibitors on lysozyme's myocardial depressant effect in right ventricular trabecular preparation; details: for Effect on lysozyme's myocardial depressant effect: muscle incubated with inhibitor about one hour before lysozyme
Description: (§1) The right ventricular trabecular preparation used in this study has previously been described. Briefly, mongrel dogs (3 to 10 kg) were anesthetized with pentobarbital. The hearts were removed, flushed with 50 ml of Krebs-Henseleit solution (KH), and placed in ice-cold KH bubbled with a mixture of 95% O2 and 5% CO2. Three to four thin trabeculae (<1 mm diameter) were obtained from the right ventricle and were tied at each end with 6-O silk thread. Each thin muscle was suspended in a 5 ml vertical constant temperature bath that contained KH. The muscle was stimulated electrically via punctate platinum bipolar electrodes with rectangular pulses (1 ms duration) at an intensity of 50% above threshold delivered at intervals of 2,000 ms. The trabeculae were stretched to optimal length.
The plasma concentration of lysozyme attained in the inventors' sepsis model is approximately 10^−8M, and the 10^−7M to 10^−9M range was used in the experiments described below. Lysozyme was purified from the spleens of nonseptic dogs as previously described. Measurements were obtained at 5 minute intervals.
In one group of experiments, the non-specific nitric oxide synthase inhibitor N^G-monomethyl-L-arginine (L-LNMMA) was used to determine whether it could inhibit the depressant effect of lysozyme. The muscle was incubated with L-NMMA (10^−3M) for approximately one hour after which lysozyme was instilled into the preparation. As a negative control group, ventricular trabeculae were incubated with D-NMMA after which lysozyme was instilled. With the D-isomer, no inhibition of lysozyme's effect would be expected.
In separate experiments, the respective roles of eNOS, nNOS, and iNOS were evaluated in which the objective was to determine which of the NOS isoforms was responsible for the myocardial depression observed with lysozyme. The relatively specific inhibitors for eNOS (L-NIO.2HCl [L-N^5-(1-[Iminoethyl)-ornithine.2HCl], nNOS (N-ω-Propyl-L-arginine [N^5-[Imino(propylamino)methyl]-L-ornithine], and iNOS (1400W.dihydrochloride [N-(3-aminomethyl)benzyl)acetamidine.2HCl] were compared in respective experiments in which a range of concentrations of either NOS inhibitor was used.
In other experiments, the muscle was incubated ODQ (10^−3M) or the PKG inhibitor (Rp-8-Br-cGMP) for one hour. The effect of lysozyme on isometric tension was compared to trabeculae without the respective inhibitors.
The results are expressed as a percent of baseline isometric tension. Statistical analyses included two-way analysis of variance and Student Newman Keuls' multiple comparison test. The results are reported as mean (±SD).

[2] = system: right ventricular trabecular preparation; test: Effect of the substance itself on isometric tension in right ventricular trabecular preparation
Description: Aliquots of the 10-30 KD plasma fraction (0.05 to 1 ml) were then added to a right ventricular (RV) trabecular preparation to test for the presence of FCS activity. The RV preparation has previously been described (6,7). Briefly, mongrel dogs (3 to 10 kg) were anesthetized with pentobarbital, and their hearts were removed. Three to four thin trabeculae (<1 mm diameter) were obtained from the right ventricle and were suspended in a vertical constant temperature bath (5 ml) that contained Krebs Henseleit (KH) solution. The muscle was stimulated electrically at 0.5 Hz. Aliquots of plasma fractions (from 0.05 to 1 ml) were added to respective organ baths at 5 minute intervals. The changes observed in the pre and septic plasma fractions were expressed relative to tensions found at baseline (i.e. prior to the addition of the sample). An increase in the depressant activity in the septic plasma fraction relative to that found in the presepsis sample was indicative of an increase in FCS.
The effect of purified Lzm-S on myocardial depression was then studied in the ventricular trabecular preparation. In initial experiments, the objective was to compare Lzm-S prepared from septic and nonseptic spleens to see if there was any difference between the two preparations. Although no differences were apparent by SDS-PAGE gel, different isoforms of the enzyme could have developed in sepsis thereby increasing its potential to cause myocardial depression. Aliquots of the septic and nonseptic preparations were added (at 5 minute intervals) to respective organ baths, and the changes in isometric tension were then compared between Lzm-S obtained from spleens of septic and nonseptic animals.
The right ventricular (RV) preparation used in this study has also been described (49,6). Briefly, mongrel dogs (3 to 10 kg) were anesthetized with pentobarbital. The hearts were removed, flushed with 50 ml of Krebs-Henseleit solution (KH), and placed in ice-cold KH bubbled with a mixture of 95% O2 and 5% CO2. […]
After baseline tension was determined, either the lectin or placebo was placed into respective organ baths. […]

[3] = target: T1, lysozyme c (Lzm-S) (Canis lupus familiaris, UniProt P81709); test: Inhibition of Lzm-S's myocardial depressant activity (isometric tension) in right ventricular trabecular preparation; details: for Isometric tension following pre-treatment with sugar: sugar 10^−3M added before Lzm-S; for Inhibition of Lzm-S's depressant effect on isometric tension: inhibitor 10^−3M added before Lzm-S, paced 0.5 Hz
T1 construct: Lzm-S was purified in a manner described by Grobler et al (14); from tissue
T1 sequence (P81709 1-130): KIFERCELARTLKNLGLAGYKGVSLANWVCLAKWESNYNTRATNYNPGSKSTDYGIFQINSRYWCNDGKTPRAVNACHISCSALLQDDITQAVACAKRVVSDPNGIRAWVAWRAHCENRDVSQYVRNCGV
Description: In subsequent experiments, the objective was to determine whether pretreatment of Lzm-S with the proteolytic enzyme proteinase-K reduced the extent to which myocardial depression developed in the in vitro preparation (7). Proteinase-K (attached to beaded agarose; Sigma Chemical, St Louis, Mo.) was added to the pure Lzm-S preparation. The effects of proteinase-K treated and nontreated Lzm-S on isometric tension were compared between the samples. Since proteinase-K is a non-specific proteolytic enzyme, a specific competitive inhibitor of lysozyme, TAC (chitotriose) was subsequently examined to determine whether it prevented the depression in isometric tension observed in the in vitro preparation (16,17).
In one set of experiments, it was determined whether TAC prevented the reduction in tension observed with Lzm-S. A dose of 10^−3M TAC (based on preliminary experiments) was added to the organ bath before the addition of Lzm-S. Lzm-S was then added to bring the final concentrations to 10^−10M, 10^−9M, 10^−8M, and 10^−7M in sequential steps. In a related set of experiments, the effect of TAC was studied under a similar protocol in which the ventricular trabecular preparation was paced at 1 Hz instead of 0.5 Hz. The objective was to determine whether the higher frequency altered the inhibitory response of TAC. In a third set of experiments, the sequence of adding TAC and Lzm-S was reversed. Lzm-S (10^−7M) was initially added to the preparation, after which TAC at bath concentrations of 10^−6M, 10^−5M, 10^−4M, 10^−3M were sequentially added. The objective was to determine whether TAC could attenuate the effect of Lzm-S on reducing the isometric response after an initial depression in isometric tension had already been attained.
as §1, with “(RV)” for “trabecular”, “also” for “previously”, “described (49,6).” for “described.”, “a” for “a 5 ml”, “bath (5 ml)” for “bath”, “KH (in mM: NaCl, 118; KCl, 4.7; CaCl2 2.5; MgSO4, 1.2; KH2PO4, 1.4; NaHCO3, 25; and dextrose, 11).” for “KH.”
Inhibitory activities of N-acetylglucosamine (NAG), N,N′ diacetylglucosamine (NAG-NAG: N,N′ diacetylchitobiose), and N,N′,N″,N′″ tetraacetylglucosamine (NAG-NAG-NAG-NAG: N,N′,N″,N′″-tetraacetylchitotetraose) were examined (Sigma Corp Canada, Oakville Ontario). These are structurally similar to TAC, but have a different number of NAG units (17). Two somewhat related sugars were also examined to see if there was potential for blocking the activity of lysozyme. These included D-cellotriose and N-aceytllactosamine. D-cellotriose includes three glucose residues linked by beta (1-4) glycosidic linkages, while N acetyllactosamine includes N-acetylglucosamine and galactose residues linked by beta (1-4) glycosidic linkages (12).
After baseline tension was determined, either the sugar or placebo was placed into respective organ baths. The concentration of the sugar used was 10^−3M based on the inventors' previous experiments with TAC 49), while the concentrations of lysozyme were 10^−9, 10^−8, and 10^−7M, respectively. Measurements were obtained at 5 minute intervals. The changes in isometric tension measured from baseline were compared between the treated and placebo baths. […]

Effect on lysozyme's myocardial depressant effect [1]	Isometric tension following pre-treatment with sugar ([3]; Lzm-S 10^−7M)	Isometric tension following pre-treatment with sugar ([3]; Lzm-S 10^−8M)	Isometric tension following pre-treatment with sugar ([3]; Lzm-S 10^−9M)	SMILES	Inhibition of Lzm-S's depressant effect on isometric tension [3]	also measured
	48±1 % of baseline	55±1 % of baseline	60±0 % of baseline	CC(=O)N[C@H]1C(O)O[C@H](CO)[C@@H](O[C@@H]2O[C@H](CO)[C@H](O)[C@H](O)[C@H]2O)[C@@H]1O (stereo partly shown) [N-acetyllactosamine]	neither N-acetylglucosamine (NAG), N-acetyllactosamine nor cellotriose had inhibitory properties	
blocked				O=c1onc2cnc3ccccc3n12 [ODQ, 1H-[1,2,4] oxidadiazolo-[4,3-a] quinoxalin-1-one]		
	44±2 % of baseline	61±4.5 % of baseline	85±2 % of baseline	CC(=O)N[C@H]1C(O)O[C@H](CO)[C@@H](O)[C@@H]1O (stereo partly shown) [N-acetylglucosamine]	neither N-acetylglucosamine (NAG), N-acetyllactosamine nor cellotriose had inhibitory properties	
no inhibition				CNC(=N)NCCCC(N)C(=O)O [D-NMMA]		

Continued, compound first:

SMILES	Effect on lysozyme's myocardial depressant effect [1]	Isometric tension following pre-treatment with sugar ([3]; Lzm-S 10^−7M)	Isometric tension following pre-treatment with sugar ([3]; Lzm-S 10^−8M)	Isometric tension following pre-treatment with sugar ([3]; Lzm-S 10^−9M)	Inhibition of Lzm-S's depressant effect on isometric tension [3]	also measured
CNC(=N)NCCC[C@H](N)C(=O)O [L-NMMA, N^G-monomethyl-L-arginine, reference compound]	markedly attenuated					Effect of the substance by itself on isometric tension [2]: no change in isometric tension
N=C(N)NCCC[C@H](N)C(=O)O [L-arginine]						Effect on the inhibition by L-NMMA [1]: able to competively overcome the effect of L-NMMA
CC(=O)N[C@H]1[C@H](O[C@H]2[C@H](O)[C@@H](NC(C)=O)C(O)O[C@@H]2CO)O[C@H](CO)[C@@H](O[C@@H]2O[C@H](CO)[C@@H](O[C@@H]3O[C@H](CO)[C@@H](O)[C@H](O)[C@H]3NC(C)=O)[C@H](O)[C@H]2NC(C)=O)[C@@H]1O (stereo partly shown) [tetraacetylchitotetraose, N,N′,N″,N′″ tetraacetylglucosamine]					no inhibitory effect	Inhibition of Lzm-S's depressant effect on isometric tension ([3]; listed as N,N′,N″,N′″ tetraacetylchitotetraose): no inhibitory effect on lysozyme's depressant activity
O=c1c2nc(Br)n(C3OC4COP([O-])(=S)OC4C3O)c2nc2[nH]c(-c3ccccc3)cn12.[Na+] (single isomer, unassigned) [Rp-8-Br-cGMP, guanosine 3′,5′-cyclic monophosphorothioate, β-phenyl-1, N^2-etheno-8-bromo-Pp-isomer, sodium salt]	blocked					
CC(=N)NCCC[C@H](N)C(=O)O.Cl.Cl [eNOS]	most potent in the prevention of lysozyme's myocardial depressant effect					Concentration of the NOS inhibitor at which lysozyme's depressant effect was prevented [1]: 10^−8 M
OCC1OC(OC2C(CO)OC(OC3C(CO)OC(O)C(O)C3O)C(O)C2O)C(O)C(O)C1O [cellotriose, D-cellotriose]		58±17 % of baseline	79±13 % of baseline	84±9 % of baseline	neither N-acetylglucosamine (NAG), N-acetyllactosamine nor cellotriose had inhibitory properties	
